According to patent publication US8404851B2, “1,3,5-trisubstituted triazole derivative” (Janssen Pharmaceutica NV, priority 2007, dated 2013):

Columns and labels:
[1] = target: T1, hα7-wt nAChR (Homo sapiens, UniProt P36544); experiment: Whole-cell voltage-clamp recording, PAM activity with choline; format: cell-based; set-up: key: Type 1 compounds enhance the effect size of the current elicited by 1 mM choline but minimally alter the kinetics of the receptor.; Type 2 compounds enhance the effect size of the current elicited by 1 mM choline while reducing the rate and/or the extent of desensitization.; Type 3 compounds enhance the effect size of the current elicited by 1 mM choline. When tested at higher concentrations up to 10 μM they completely inhibit desensitization; Type 4 compounds allow for an initial desensitization of the receptor followed by a re-opening of the receptor during agonist application; settings: qualitative kinetic properties, 1 mM choline, GH4C1 cells
T1 construct: expressed in transfected cells
Experimental: The compounds of the present invention are classified as type 1-4, based on qualitative kinetic properties, as determined by whole-cell voltage-clamp recordings. This classification is based on the effect of an α7 PAM compound, as described hereinbefore, on the signal elicited by an agonist application. In particular, said agonist is choline at a concentration of 1 mM. In a preferred experimental setting, said α7 PAM compound and choline are simultaneously applied to the cell, as described hereinafter. Desensitization as described hereinafter is the closure of the receptor upon activation during the application of the agonist in whole-cell voltage-clamp electrophysiology measurements seen as the reduction of the […] current after initial activation by the agonist.
The definition of the PAM types 1-4 is described hereinafter: • Type 1 compounds enhance the effect size of the current elicited by 1 mM choline but minimally alter the kinetics of the receptor. In particular, the rate and the extent of desensitization, elicited by the agonist, is not affected. […]
The compound of the present invention also has a potentiating effect on the response to choline when measured by whole-cell voltage clamp electrophysiology in GH4C1 cells stably over-expressing the human wild-type α7 receptor, as described hereinafter. […]

[2] = target: T1, hα7-wt nAChR; experiment: Ca2+ flux imaging (FDSS), PAM activity with choline; format: cell-based; settings: hα7-wt nAChR-expressing GH4C1 cells; potentiation of choline 100 μM; compound 0.01 μM to 30 μM
Experimental: Ca^2+ Flux Imaging (FDSS) […]
PAM activity was detected in real time by applying the compound to be tested to the loaded cells along with a α7 nicotinic receptor agonist during constant monitoring of the cellular calcium mobilization by fluorescence in a FDSS. […]
A control response to choline was calculated on each plate from the difference in peak in fluorescence in wells receiving either choline or assay buffer alone. […]
EC50 values (potency), maximal effect (% efficacy), and Hill slopes were estimated by fitting the sigmoidal equation to the data using GraphPad Prism (GraphPad Software, Inc., San Diego, Calif.). An EC50 (or pEC50) was determined as a concentration relating to half the maximal effect, when a clear sigmoidal curve with top plateau was obtained.

T1 sequence (P36544 23-502): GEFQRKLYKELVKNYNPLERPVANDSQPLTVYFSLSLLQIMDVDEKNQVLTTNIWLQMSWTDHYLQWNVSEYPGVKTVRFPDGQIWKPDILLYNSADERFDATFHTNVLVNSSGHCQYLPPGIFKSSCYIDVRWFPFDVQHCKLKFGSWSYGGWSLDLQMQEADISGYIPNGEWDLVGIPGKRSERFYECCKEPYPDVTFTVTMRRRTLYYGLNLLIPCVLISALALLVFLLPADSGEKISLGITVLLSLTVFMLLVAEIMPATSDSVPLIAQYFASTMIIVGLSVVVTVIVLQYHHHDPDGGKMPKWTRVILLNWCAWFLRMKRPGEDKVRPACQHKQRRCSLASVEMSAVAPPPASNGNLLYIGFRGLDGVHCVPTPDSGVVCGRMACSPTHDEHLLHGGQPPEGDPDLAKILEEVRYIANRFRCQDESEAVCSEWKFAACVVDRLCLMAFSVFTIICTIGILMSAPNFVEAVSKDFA

melting point: 242.28 °C
EC50 [2]: 309 nM
SMILES: CCNC(=O)Cn1nc(Nc2ccc3c(c2)OC(F)(F)O3)nc1-c1cc(C)nc(C)c1 [Compound E1, 2-[3-(2,2-Difluoro-benzo[1,3]dioxol-5-ylamino)-5-(2,6-dimethyl-pyridin-4-yl)-[1,2,4]-triazol-1-yl]-N-ethyl-acetamide]
PAM_type [1]: 2
